# Experimental data taken from the supplement of paper PMC10307832.
# Tests used:
# Assay in all cases: relative viability (nuclei count vs DMSO), 5 days (fraction); higher = more cells survive
# NCI-H1650 = test system: NCI-H1650
# Procedure, shortened: (§1)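 Medians of duplicate plates are given as relative viability. That measure is the nuclei count in treated wells divided by the count in vehicle wells. Counts were taken on 4× images of lung cancer cell lines in 1536-well plates, 5 days after pin-tool dosing the day after seeding with one drug alone or a fixed anchor-drug dose plus five library-drug doses (not always all listed) in √10 steps.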
# NCI-H1734 = test system: NCI-H1734
# Procedure, shortened: as §1
# NCI-H2228 = test system: NCI-H2228
# Procedure, shortened: as §1
# NCI-H2342 = test system: NCI-H2342
# Procedure, shortened: as §1
# NCI-H2405 = test system: NCI-H2405
# Procedure, shortened: as §1
# NCI-H322M = test system: NCI-H322M
# Procedure, shortened: as §1
# NCI-H520 = test system: NCI-H520
# Procedure, shortened: as §1
# NCI-H661 = test system: NCI-H661
# Procedure, shortened: as §1
# PC-14 = test system: PC-14
# Procedure, shortened: as §1
# PC-3 [JPC-3] = test system: PC-3 [JPC-3]
# Procedure, shortened: as §1
# RERF-LC-KJ = test system: RERF-LC-KJ
# Procedure, shortened: as §1
# SW 1573 = test system: SW 1573
# Procedure, shortened: as §1
compound,measurement,setting,value
CC1(C)CCC(c2ccc(Cl)cc2)=C(CN2CCN(c3ccc(C(=O)NS(=O)(=O)c4ccc(N[C@H](CCN5CCOCC5)CSc5ccccc5)c(S(=O)(=O)C(F)(F)F)c4)cc3)CC2)C1 [Navitoclax] + COc1cc2c(Oc3ccc(NC(=O)C4(C(=O)Nc5ccc(F)cc5)CC4)cc3F)ccnc2cc1OCCCN1CCOCC1 [Foretinib] (partner 0.25 µM),relative viability,NCI-H1650; first compound 0.01581 µM,1.48
same,relative viability,NCI-H1650; first compound 0.05 µM,1.12
same,relative viability,NCI-H1650; first compound 0.1581 µM,1.28
same,relative viability,NCI-H1650; first compound 0.5 µM,0.953
same,relative viability,NCI-H1734; first compound 0.005 µM,0.887
same,relative viability,NCI-H1734; first compound 0.01581 µM,0.941
same,relative viability,NCI-H1734; first compound 0.1581 µM,0.831
same,relative viability,NCI-H1734; first compound 0.5 µM,0.906
same,relative viability,NCI-H2228; first compound 0.005 µM,0.727
same,relative viability,NCI-H2228; first compound 0.01581 µM,1.04
same,relative viability,NCI-H2228; first compound 0.1581 µM,1.01
same,relative viability,NCI-H2228; first compound 0.5 µM,0.85
same,relative viability,NCI-H2342; first compound 0.005 µM,1.19
same,relative viability,NCI-H2342; first compound 0.01581 µM,1.22
same,relative viability,NCI-H2342; first compound 0.05 µM,0.871
same,relative viability,NCI-H2342; first compound 0.1581 µM,1.1
same,relative viability,NCI-H2342; first compound 0.5 µM,1.16
same,relative viability,NCI-H2405; first compound 0.005 µM,1.04
same,relative viability,NCI-H2405; first compound 0.01581 µM,1.09
same,relative viability,NCI-H2405; first compound 0.05 µM,0.998
same,relative viability,NCI-H2405; first compound 0.1581 µM,1.04
same,relative viability,NCI-H2405; first compound 0.5 µM,1.05
same,relative viability,NCI-H322M; first compound 0.005 µM,1.03
same,relative viability,NCI-H322M; first compound 0.01581 µM,1.19
same,relative viability,NCI-H322M; first compound 0.05 µM,0.795
same,relative viability,NCI-H322M; first compound 0.1581 µM,0.992
same,relative viability,NCI-H322M; first compound 0.5 µM,1.1
same,relative viability,NCI-H520; first compound 0.01581 µM,0.985
same,relative viability,NCI-H520; first compound 0.05 µM,0.892
same,relative viability,NCI-H520; first compound 0.1581 µM,0.738
same,relative viability,NCI-H520; first compound 0.5 µM,0.61
same,relative viability,NCI-H661; first compound 0.005 µM,0.984
same,relative viability,NCI-H661; first compound 0.01581 µM,1.06
same,relative viability,NCI-H661; first compound 0.05 µM,0.87
same,relative viability,NCI-H661; first compound 0.1581 µM,0.988
same,relative viability,NCI-H661; first compound 0.5 µM,1
same,relative viability,PC-14; first compound 0.005 µM,0.898
same,relative viability,PC-14; first compound 0.01581 µM,0.981
same,relative viability,PC-14; first compound 0.05 µM,1.27
same,relative viability,PC-14; first compound 0.1581 µM,0.941
same,relative viability,PC-14; first compound 0.5 µM,0.838
same,relative viability,PC-3 [JPC-3]; first compound 0.005 µM,1.02
same,relative viability,PC-3 [JPC-3]; first compound 0.01581 µM,1.03
same,relative viability,PC-3 [JPC-3]; first compound 0.05 µM,1.12
same,relative viability,PC-3 [JPC-3]; first compound 0.1581 µM,1.02
same,relative viability,PC-3 [JPC-3]; first compound 0.5 µM,1.06
same,relative viability,RERF-LC-KJ; first compound 0.005 µM,0.841
same,relative viability,RERF-LC-KJ; first compound 0.01581 µM,0.896
same,relative viability,RERF-LC-KJ; first compound 0.05 µM,0.844
same,relative viability,RERF-LC-KJ; first compound 0.1581 µM,0.942
same,relative viability,RERF-LC-KJ; first compound 0.5 µM,0.849
same,relative viability,SW 1573; first compound 0.005 µM,1.06
same,relative viability,SW 1573; first compound 0.01581 µM,1
same,relative viability,SW 1573; first compound 0.05 µM,0.922
same,relative viability,SW 1573; first compound 0.1581 µM,1.02
same,relative viability,SW 1573; first compound 0.5 µM,1.04
